Converted amounts (≈) assume the structure as drawn.
Columns and labels:
Assay in all cases: MIC, broth microdilution (NCCLS)
[1] = system: Enterococcus faecalis Enfa_29212; assay type: cell-based; conditions: strain ID E, broth microdilution
How it was run: (§1)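 Broth microdilution per NCCLS in cation-adjusted Mueller-Hinton broth, with 2-5% lysed horse blood added for S. pneumoniae. Inoculum 3×10^5–7×10^5 CFU/ml, 2-fold drug dilutions, 18-24 h at 35° C; S. pneumoniae under 5-10% CO2, others ambient air. MIC = lowest concentration preventing visible growth.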

[2] = system: Haemophilus influenzae Hain_49247; assay type: cell-based; conditions: strain ID H; broth microdilution; unit assumed
[3] = system: Staphylococcus aureus Stau_29213; assay type: cell-based; conditions: strain ID A; broth microdilution; in µg/mL (unit assumed)
How it was run: as §1

[4] = system: Staphylococcus epidermidis Step_14990; assay type: cell-based; conditions: strain ID C; broth microdilution; in µg/mL (unit assumed)
How it was run: as §1

[5] = system: Staphylococcus epidermidis Step_f50654; assay type: cell-based; conditions: strain ID D; broth microdilution; in µg/mL (unit assumed)
How it was run: as §1

[6] = system: Streptococcus pneumoniae Stpn_Erm S 4297; assay type: cell-based; conditions: strain ID Q, broth microdilution
How it was run: as §1

[7] = system: Enterococcus faecalis Enfa_bc 11148-2; assay type: cell-based; conditions: strain ID F; broth microdilution; in µg/mL (unit assumed)
How it was run: (§2)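 Broth microdilution per NCCLS in cation-adjusted Mueller-Hinton broth, or Haemophilus Test Medium for H. influenzae, with 2-fold serial drug dilutions and 3×10^5–7×10^5 CFU/ml inoculum. Trays incubated 18-24 hours at 35° C (H. influenzae in 5-10% CO2). MIC = lowest concentration preventing visible growth.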

[8] = system: Haemophilus influenzae Hain_2762; assay type: cell-based; conditions: strain ID L; broth microdilution; in µg/mL (unit assumed)
How it was run: as §2

[9] = system: Haemophilus influenzae Hain_953460299-3; assay type: cell-based; conditions: strain ID K; broth microdilution; in µg/mL (unit assumed)
How it was run: as §2

[10] = system: Haemophilus influenzae Hain_960730503-3; assay type: cell-based; conditions: strain ID I; broth microdilution; in µg/mL (unit assumed)
How it was run: as §2

[11] = system: Haemophilus influenzae Hain_960820544-3; assay type: cell-based; conditions: strain ID J; broth microdilution; in µg/mL (unit assumed)
How it was run: as §2

[12] = system: Staphylococcus aureus Stau_33591; assay type: cell-based; conditions: strain ID B; broth microdilution; unit assumed
How it was run: as §2

[13] = system: Streptococcus pyogenes Stpy_8668; assay type: cell-based; set-up: MIC, strain ID G: unit not given beside the values; conditions: strain ID G; broth microdilution
How it was run: as §1

[14] = system: Streptococcus pneumoniae Stpn_49619; assay type: cell-based; set-up: MIC, strain ID M: unit not given beside the values; conditions: strain ID M; broth microdilution
How it was run: as §1

[15] = system: Streptococcus pneumoniae Stpn_297-749; assay type: cell-based; set-up: MIC, strain ID N: unit not given here; conditions: strain ID N; broth microdilution
How it was run: as §1

[16] = system: Streptococcus pneumoniae Stpn_280-962; assay type: cell-based; set-up: MIC, strain ID O: unit not given beside the values; conditions: strain ID O; broth microdilution
How it was run: as §1

[17] = system: S. pneumoniae Stpn_Erm 6849; assay type: cell-based, Streptococcus pneumoniae; conditions: strain ID P; broth microdilution; in µg/mL (unit assumed)
How it was run: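 Lowest drug concentration giving no visible growth after 18-24 hours at 35° C. under 5-10% CO2 was taken as MIC. Twofold serial dilutions in CAMHB plus 2-5% lysed horse blood, final inoculum 3×10^5–7×10^5 CFU/ml, per NCCLS microdilution.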

Row | Structure (SMILES) | MIC, strain ID E ([1]; in µg/mL (unit assumed)) | MIC, strain ID H [2] [µg/mL] | MIC, strain ID A [3] | MIC, strain ID C [4] | MIC, strain ID D [5] | MIC, strain ID Q [6] | MIC, strain ID F [7] | MIC, strain ID L [8] | MIC, strain ID K [9] | MIC, strain ID I [10] | MIC, strain ID J [11] | MIC, strain ID B [12] [µg/mL] | MIC, strain ID G [13] | MIC, strain ID M [14] | MIC, strain ID N [15] | MIC, strain ID O [16] | MIC, strain ID P [17] | MIC, strain ID E [1] | MIC, strain ID Q ([6]; in µg/mL (unit assumed))
1 | C=C[C@]12OC(=O)N(CCCCn3cc(-c4ccc(Cl)nc4)nc3C)[C@@H]1[C@@H](C)C(=O)[C@H](C)C[C@](C)(OC)[C@H](OC1O[C@H](C)C[C@H](N(C)C)[C@H]1O)[C@@H](C)C(=O)[C@@H](C)C(=O)O[C@@H]2CC (some centres unmarked) [XXIX] | 0.1 | 6.25 (≈ 7.16 µM) | 0.2 | 0.1 | 0.2 | =0.05 | 3.13 | 1.56 | 12.5 | 6.25 | 6.25 | > 50 | =0.05 | =0.05 | =0.05 | =0.05 | 0.78 | – | –
2 | CC[C@H]1OC(=O)[C@H](C)C(=O)[C@H](C)[C@@H](OC2O[C@H](C)C[C@H](N(C)C)[C@H]2O)[C@@](C)(OC)C[C@@H](C)C(=O)[C@H](C)[C@@H]2[C@@H]1OC(=O)N2CCCCn1cnc(-c2ccc(Cl)nc2)c1 (some centres unmarked) [XXVIII] | – | 6.25 (≈ 7.51 µM) | 0.2 | 0.1 | 0.2 | – | 0.4 | 1.56 | 12.5 | 6.25 | 6.25 | > 50 | =0.05 | =0.05 | =0.05 | =0.05 | 0.78 | =0.05 | 0.1
3 | C#C[C@]12OC(=O)N(CCCCn3cnc(-c4ccc(OC)nc4)c3)[C@@H]1[C@@H](C)C(=O)[C@H](C)C[C@](C)(OC)[C@H](OC1O[C@H](C)C[C@H](N(C)C)[C@H]1O)[C@@H](C)C(=O)[C@@H](C)C(=O)O[C@@H]2CC (some centres unmarked) [XXXII] | 0.1 | 6.25 (≈ 7.34 µM) | 0.2 | 0.1 | 0.2 | – | 1.56 | 1.56 | 12.5 | 12.5 | 12.5 | > 50 | =0.05 | =0.05 | =0.05 | =0.05 | 0.78 | – | 0.2
4 | C#C[C@]12OC(=O)N(CCCCn3cnc(-c4ccc(Cl)nc4)c3)[C@@H]1[C@@H](C)C(=O)[C@H](C)C[C@](C)(OC)[C@H](OC1O[C@H](C)C[C@H](N(C)C)[C@H]1O)[C@@H](C)C(=O)[C@@H](C)C(=O)O[C@@H]2CC (some centres unmarked) [XXXIV] | – | 3.13 (≈ 3.65 µM) | 0.1 | 0.1 | 0.1 | – | 0.4 | 0.78 | 6.25 | 6.25 | 6.25 | > 50 | =0.05 | =0.05 | =0.05 | =0.05 | 0.4 | =0.05 | 0.1
5 | C=C[C@]12OC(=O)N(CCCCn3cnc(-c4cnc(Cl)c(C)c4)c3)[C@@H]1[C@@H](C)C(=O)[C@H](C)C[C@](C)(OC)[C@H](OC1O[C@H](C)C[C@H](N(C)C)[C@H]1O)[C@@H](C)C(=O)[C@@H](C)C(=O)O[C@@H]2CC (some centres unmarked) [XXXVIII] | 0.1 | 3.13 (≈ 3.59 µM) | 0.1 | 0.1 | 0.4 | – | 3.13 | 1.56 | 12.5 | 6.25 | 12.5 | > 50 | =0.05 | =0.05 | =0.05 | =0.05 | 0.2 | – | 0.2
6 | C=C[C@]12OC(=O)N(CCCCn3cnc(-c4ccc(Cl)nc4)c3C)[C@@H]1[C@@H](C)C(=O)[C@H](C)C[C@](C)(OC)[C@H](OC1O[C@H](C)C[C@H](N(C)C)[C@H]1O)[C@@H](C)C(=O)[C@@H](C)C(=O)O[C@@H]2CC (some centres unmarked) [XXXVII] | 0.1 | 6.25 (≈ 7.16 µM) | 0.2 | 0.2 | 0.2 | – | 0.78 | 1.56 | 6.25 | 12.5 | 6.25 | > 50 | =0.05 | =0.05 | =0.05 | =0.05 | 0.78 | – | 0.2
7 | C=C[C@]12OC(=O)N(CCCCn3cnc(-c4cccnc4Cl)c3)[C@@H]1[C@@H](C)C(=O)[C@H](C)C[C@](C)(OC)[C@H](OC1O[C@H](C)C[C@H](N(C)C)[C@H]1O)[C@@H](C)C(=O)[C@@H](C)C(=O)O[C@@H]2CC (some centres unmarked) [XXXVI] | 0.1 | 3.13 (≈ 3.65 µM) | 0.2 | 0.1 | 0.2 | – | 1.56 | 1.56 | 6.25 | 6.25 | 6.25 | > 50 | =0.05 | =0.05 | =0.05 | =0.05 | 0.78 | – | 0.1
